Measured values taken from US20160168186A1, “Method of Treating Dengue Fever” (RIBOSCIENCE LLC, priority 2011, published 2016).
Where two headings read alike, the source gives them in different places.

Assays:
[1] = tested on: H241: dengue virus serotype 4; test: Dendritic Cells Infection Assay (viral RNA by real time PCR); type: cell-based; settings: Dendritic cell, human primary immature monocyte derived dendritic cells, MOI 2, 24 h, dengue RNA relative to 18S rRNA
Experimental: Cryopreserved human immature monocyte derived Dendritic Cells (iDC) from individual donors were obtained from Stemcell Technologies (CAT# PB-DC001F). iDC were counted and incubated at a concentration of 15,000 cells/well (96 well plate) in RPMI 1640 media containing 10% (v/v) fetal bovine serum (FBS), 1% (v/v) penicillin/streptomycin (Invitrogen™) for 48 h at 37° C. in a 90% humidified, 5% CO2 atmosphere prior to the start of the experiment.
In a 96 well flat-bottom plate, 15000 iDC from individual donors were infected with dengue virus at a multiplicity of infection (MOI) of 2 in a volume of 50 μl for 2 h. After Infection iDCs were washed and cultured in complete RPMI media in the presence of serially diluted compounds. Each virus/drug combination was tested either in duplicate or triplicate (Depending on the availability of iDC from individual donors). Plates were incubated for 24 h at 37° C. in a 90% humidified, 5% CO2 atmosphere. After 24 h cells were washed and cellular RNA were isolated. Viral RNA and endogenous 18S rRNA control (Applied Bio Systems) was quantified by a real time PCR assay. The viability of mock-infected and infected iDC were monitored at described time points using a CellTiter Glo® (promega) assay according to manufacturer's recommendation.
Cellular RNA was isolated by PerfectPure™ RNA 96 cell kit (5 PRIME) according to manufacturer's recommendation. Transcriptor First Strand cDNA Synthesis Kit (Roche) was used to generate cDNA using random hexamer primers. […] First ΔCt was calculated by subtracting the 18S rRNA CT value from the dengue RNA CT value. ΔCts from duplicate taqman assay were averaged. […] Relative quantification was calculated using the following formula. Relative quantification=2^−averageΔΔCT. […]

dengue [2] = settings: cited from earlier work
dengue [3] = settings: by inhibiting the dengue 2′-O-methyltransferase NS5 domain; cited from earlier work
dengue [4] = settings: mouse model; cited from earlier work

With `C[C@H](NP(=O)(OC[C@@]1(N=[N+]=[N-])O[C@@H](n2cnc3c(N)ncnc32)[C@H](O)[C@@H]1O)Oc1ccccc1)C(=O)OCc1ccccc1` (stereo partly drawn) [Compound I-2, (S)-2-{[(2R,3S,4R,5R)-5-(6-Amino-purin-9-yl)-2-azido-3,4-dihydroxy-tetrahydro-furan-2-ylmethoxy]-phenoxy-phosphorylamino}-propionic acid benzyl ester] as the molecule, how does the IC50 [1] read?
The IC50 was 1.9 µM.

Which IC50 [1] does the source give for `[N-]=[N+]=N[C@]1(COP(=O)(N[C@@H](Cc2ccccc2)C(=O)OCc2ccccc2)Oc2cccc3ccccc23)O[C@@H](n2ccc(=O)[nH]c2=O)[C@H](O)[C@@H]1O` (stereo partly drawn) [Compound I-9, (S)-2-[[(2R,3S,4R,5R)-2-Azido-5-(2,4-dioxo-3,4-dihydro-2H-pyrimidin-1-yl)-3,4-dihydroxy-tetrahydro-furan-2-ylmethoxy]-(naphthalen-1-yloxy)-phosphorylamino]-3-phenyl-propionic acid benzyl ester] here?
Its IC50 is 16 µM.

For `CCOC(=O)[C@H](Cc1ccccc1)NP(=O)(OC[C@@]1(N=[N+]=[N-])O[C@@H](n2ccc(=O)[nH]c2=O)[C@H](O)[C@@H]1O)Oc1cccc2ccccc12` (stereo partly drawn) [Compound I-10, (S)-2-[[(2R,3S,4R,5R)-2-Azido-5-(2,4-dioxo-3,4-dihydro-2H-pyrimidin-1-yl)-3,4-dihydroxy-tetrahydro-furan-2-ylmethoxy]-(naphthalen-1-yloxy)-phosphorylamino]-3-phenyl-propionic acid ethyl ester], which IC50 [1] is on record?
The IC50 was 15 µM.

What does the source list for `NC(=O)c1ncn([C@@H]2O[C@H](CO)[C@@H](O)[C@H]2O)n1` [Ribavirin]?
adverse effects (dengue [2]; mouse model or rhesus monkey model, text does not say which): induced anemia and thrombocytosis; protection against dengue (dengue [2]; rhesus monkey model): did not show protection; activity against dengue in tissue culture (dengue [3]): works against dengue in tissue culture; protection against dengue (dengue [4]): did not show protection
